Results from patent US20170304286A1 (LAUNX BIOMEDICAL CO., LTD., priority 2014, published 2017).
Read-outs that look alike come from different tables or passages of the source.

Legend:
Type in all cases: cell-based
TOV-21G = experiment: WST-1 cell viability, ovarian cancer cell line TOV-21G; conditions: Homo sapiens, TOV21G, 72 h
Protocol: (§1) The cell numbers were counted and reseed as 2×10^6 in culture plate/flask. Then, the culture medium were added to a volume of 10 ml, and the cells were cultured for 2-3 days. Then, the cells were suspended for loading into 96-well plates. The number of cells was 3000 and the volume of the culture medium was 100 μl each well.
(§2) Removing the original culture medium from 96-well plate. Then add 100 μl of commercially drug at a concentration of 10 μM per well. After 72 hours, add the diluted WST-1 reagent to the well with 100 μl/well, and the diluted WST-1 reagent was acquired from the dilution of 9:1 medium and WST-1 stock reagent. Finally, the total volume of each well was 200 μl/well. Culture the 96-well plate at 37° C. for 30 to 90 minutes. Detecting and calculate the survival rate of each cancer cells with an ELISA reader at OD450 nm.

ovarian cancer cells = experiment: Summary of cell viability, ovarian cancer; conditions: 72 h, read-out: Inhibitory effect
Protocol: as §2

[1] = test system: MCF7 (Mammary Gland, Adenocarcinoma); experiment: WST-1 cell viability, breast cancer cell line MCF7; conditions: Homo sapiens
Protocol: as §1, §2

[2] = test system: LoVo(Colorectal Adenocarcinoma); experiment: WST-1 cell viability, colorectal cancer cell line LoVo; conditions: Homo sapiens, 72 h
Protocol: as §1, §2

normal cells = experiment: Toxicity to normal cells (cell viability)
Excerpt: Subculture the different types of cancer cells. The cancer cells includes lung cancer, gastric cancer, hepatic cancer, colon cancer, skin cancer, cervical cancer, prostate cancer, bladder cancer, breast cancer, leukemia, pancreatic cancer, ovarian cancer, tongue cancer, osteosarcoma, and renal cancer. The normal cells used in the control group included kidney cells (HEK293), canine fibroblast cell line HFW, and human bronchial epithelial cell line BEAS-2B.
as §2

T24 = experiment: WST-1 cell viability, bladder cancer cell line T24; conditions: Homo sapiens
Protocol: as §1
as §2, with “Culture the 96-well plate at 37° C. for 30 to 90 minutes.” left out

AsPC-1 = experiment: WST-1 cell viability, pancreatic cancer cell line AsPC-1; conditions: Homo sapiens
Protocol: as §1, §2

[3] = test system: MKN-45 (Gastric Adenocarcinoma); experiment: WST-1 cell viability, gastric cancer cell line MKN-45; conditions: Homo sapiens
Protocol: as §1, §2

TSGH = experiment: WST-1 cell viability, bladder cancer cell line TSGH; conditions: 72 h
Protocol: as §1, §2

hepatic cancer cells = experiment: Summary of cell viability, hepatic cancer; conditions: 72 h, read-out: Inhibitory effect
Protocol: as §2

pancreatic cancer cells = experiment: Summary of cell viability, pancreatic cancer; conditions: 72 h, read-out: Inhibitory effect
Protocol: as §2

cervical cancer cells = experiment: Summary of cell viability, cervical cancer; conditions: 72 h, read-out: Inhibitory effect
Protocol: as §2

NIH-OVCAR-3 = experiment: WST-1 cell viability, ovarian cancer cell line NIH-OVCAR-3; conditions: Homo sapiens
Protocol: as §1, §2

gastric cancer cells = experiment: Summary of cell viability, gastric cancer; conditions: gastriccancer, 72 h, read-out: Inhibitory effect
Protocol: as §2

[4] = test system: 786-O (Renal adenocarcinoma); experiment: WST-1 cell viability, renal cancer cell line 786-O; conditions: Homo sapiens
Protocol: as §1, §2

prostate cancer cells = experiment: Summary of cell viability, prostate cancer; conditions: 72 h, read-out: Inhibitory effect
Protocol: as §2

skin cancer cells = experiment: Summary of cell viability, skin cancer; conditions: 72 h, read-out: Inhibitory effect
Protocol: as §2

various cancer cells = experiment: Inhibitory effect on various cancer cells (cell viability); conditions: Table 18, FIG. 1
Excerpt: Subculture the different types of cancer cells. The cancer cells includes lung cancer, gastric cancer, hepatic cancer, colon cancer, skin cancer, cervical cancer, prostate cancer, bladder cancer, breast cancer, leukemia, pancreatic cancer, ovarian cancer, tongue cancer, osteosarcoma, and renal cancer. The normal cells used in the control group included kidney cells (HEK293), canine fibroblast cell line HFW, and human bronchial epithelial cell line BEAS-2B. Removing the original culture medium from 96-well plate. […] After 72 hours, add the diluted WST-1 reagent to the well with 100 μl/well, and the diluted WST-1 reagent was acquired from the dilution of 9:1 medium and WST-1 stock reagent. […] Culture the 96-well plate at 37° C. for 30 to 90 minutes. Detecting and calculate the survival rate of each cancer cells with an ELISA reader at OD450 nm. […] (FIG. 1)

[5] = average of 4 tests, read-out: survival rate (inhibition effect), Average

## Fc1ccc([C@@H]2CCNC[C@H]2COc2ccc3c(c2)OCO3)cc1 [Paroxetine]
TOV-21G; [5]
  viability at 10 µM: 87.1%
TOV-21G; run 4-30 min, read-out: survival rate (inhibition effect)
  viability at 10 µM: 86.1%
TOV-21G; run 7-3-30 min, read-out: survival rate (inhibition effect)
  viability at 10 µM: 93.5%
TOV-21G; run 7-4-30 min, read-out: survival rate (inhibition effect)
  viability at 10 µM: 79.7%
TOV-21G; run 7-7-30 min, read-out: survival rate (inhibition effect)
  viability at 10 µM: 89.2%
Ovarian cancer cells
  viability at 10 µM: 86.5%
[1]; MCF7, 72 h, MCF7, average of 4 tests, read-out: survival rate (inhibition effect), Average
  viability at 10 µM: 51.2%
[1]; MCF7, MCF7, 72 h, run 0612-10 min, read-out: survival rate (inhibition effect)
  viability at 10 µM: 47.7%
[1]; MCF7, MCF7, 72 h, run 0614-10 min, read-out: survival rate (inhibition effect)
  viability at 10 µM: 50%
[1]; MCF7, MCF7, 72 h, run 0616-10 min, read-out: survival rate (inhibition effect)
  viability at 10 µM: 55.4%
[1]; MCF7, MCF7, 72 h, run 0619-10 min, read-out: survival rate (inhibition effect)
  viability at 10 µM: 51.6%
[2]; [5]
  viability at 10 µM: 58%
[2]; run 0616-10 min, read-out: survival rate (inhibition effect)
  viability at 10 µM: 54.1%
[2]; run 0619-10 min, read-out: survival rate (inhibition effect)
  viability at 10 µM: 51.5%
[2]; run 0621-10 min, read-out: survival rate (inhibition effect)
  viability at 10 µM: 77.3%
[2]; run 0623-10 min, read-out: survival rate (inhibition effect)
  viability at 10 µM: 48.9%
Normal cells
  toxicity to normal cells: no toxicity or had little toxicity
T24; T-24, 72 h, T24, average of 4 tests, read-out: survival rate (inhibition effect), Average
  viability at 10 µM: 99.9%
T24; T-24, T24, 72 h, run 1-30 min, read-out: survival rate (inhibition effect)
  viability at 10 µM: 112%
T24; T-24, T24, 72 h, run 2-20 min, read-out: survival rate (inhibition effect)
  viability at 10 µM: 85.2%
T24; T-24, T24, 72 h, run 3-20 min, read-out: survival rate (inhibition effect)
  viability at 10 µM: 102%
T24; T-24, T24, 72 h, run 4-20 min, read-out: survival rate (inhibition effect)
  viability at 10 µM: 102%
AsPC-1; ASPC1, 72 h, AsPC-1, average of 4 tests, read-out: survival rate (inhibition effect), Average
  viability at 10 µM: 77%
AsPC-1; ASPC1, AsPC-1, 72 h, run 1-4-30 min, read-out: survival rate (inhibition effect)
  viability at 10 µM: 72.5%
AsPC-1; ASPC1, AsPC-1, 72 h, run 1-7-3-30 min, read-out: survival rate (inhibition effect)
  viability at 10 µM: 78.8%
AsPC-1; ASPC1, AsPC-1, 72 h, run 1-7-4-30 min, read-out: survival rate (inhibition effect)
  viability at 10 µM: 87.3%
AsPC-1; ASPC1, AsPC-1, 72 h, run 1-7-7-30 min, read-out: survival rate (inhibition effect)
  viability at 10 µM: 69.3%
[3]; MKN-45, 72 h, MKN-45, average of 4 tests, read-out: survival rate (inhibition effect), Average
  viability at 10 µM: 40.5%
[3]; MKN-45, MKN-45, 72 h, run 0510-10 min, read-out: survival rate (inhibition effect)
  viability at 10 µM: 36.2%
[3]; MKN-45, MKN-45, 72 h, run 0512-10 min, read-out: survival rate (inhibition effect)
  viability at 10 µM: 52%
[3]; MKN-45, MKN-45, 72 h, run 0515-10 min, read-out: survival rate (inhibition effect)
  viability at 10 µM: 37.8%
[3]; MKN-45, MKN-45, 72 h, run 0517-10 min, read-out: survival rate (inhibition effect)
  viability at 10 µM: 36%
TSGH; [5]
  viability at 10 µM: 38.4%
TSGH; run 0510-10 min, read-out: survival rate (inhibition effect)
  viability at 10 µM: 37.1%
TSGH; run 0512-10 min, read-out: survival rate (inhibition effect)
  viability at 10 µM: 37.4%
TSGH; run 0515-10 min, read-out: survival rate (inhibition effect)
  viability at 10 µM: 36.8%
TSGH; run 0517-10 min, read-out: survival rate (inhibition effect)
  viability at 10 µM: 42.2%
Hepatic cancer cells
  viability at 10 µM: 60.1%
Pancreatic cancer cells
  viability at 10 µM: 77.4%
Cervical cancer cells
  viability at 10 µM: 63.8%
NIH-OVCAR-3; OVCAR-3, 72 h, NIH-OVCAR-3, average of 4 tests, read-out: survival rate (inhibition effect), Average
  viability at 10 µM: 86%
NIH-OVCAR-3; OVCAR-3, NIH-OVCAR-3, 72 h, run 7-3-30 min, read-out: survival rate (inhibition effect)
  viability at 10 µM: 80.2%
NIH-OVCAR-3; OVCAR-3, NIH-OVCAR-3, 72 h, run 7-4-30 min (fourth column), read-out: survival rate (inhibition effect)
  viability at 10 µM: 97.8%
NIH-OVCAR-3; OVCAR-3, NIH-OVCAR-3, 72 h, run 7-4-30 min (second column), read-out: survival rate (inhibition effect)
  viability at 10 µM: 81.9%
NIH-OVCAR-3; OVCAR-3, NIH-OVCAR-3, 72 h, run 7-7-30 min, read-out: survival rate (inhibition effect)
  viability at 10 µM: 83.9%
Gastric cancer cells
  viability at 10 µM: 26.3%
[4]; 786-0, 786-O, 72 h, run 0524-10 min, read-out: survival rate (inhibition effect)
  viability at 10 µM: 35.2%
[4]; 786-0, 786-O, 72 h, run 0526-10 min, read-out: survival rate (inhibition effect)
  viability at 10 µM: 24%
[4]; 786-0, 786-O, 72 h, run 0529-10 min, read-out: survival rate (inhibition effect)
  viability at 10 µM: 14.6%
[4]; 786-0, 786-O, 72 h, run 0531-10 min, read-out: survival rate (inhibition effect)
  viability at 10 µM: 22.3%
[4]; 786-0, 72 h, 786-O, average of 4 tests, read-out: survival rate (inhibition effect), Average
  viability at 10 µM: 24%
[4]; 786-0, 72 h, summary, renal cancer, read-out: Inhibitory effect
  viability at 10 µM: 72.5%
Prostate cancer cells
  viability at 10 µM: 44.1%
Skin cancer cells
  viability at 10 µM: 51%
Various cancer cells
  inhibitory effect on several cancer cell lines: significant inhibitory effect
